Assay [1] addresses human KAT6A (Homo sapiens (Human), UniProt Q92794). Nature of the assay: KAT6 enzyme activity assay (AlphaScreen method), KAT6A. The assay is classed as biochemical. The settings on record: inhibition of the enzyme human KAT6A. From the text:
Test Example 1: KAT6 Enzyme Activity Assay (AlphaScreen Method)
I. Reagents and instrument • 1. KAT6A (customized by Chempartner) • 2. Ovalbumin (Sigma-Aldrich, A5378-5G) • 3. 2 M Tris-HCl solution, pH 7.8, sterile (Sangon, B548140-0500) • 4. 5 M NaCl solution (Sangon, B548121-0100) • 5. EDTA (0.5 M), pH 8.0, RNase-free (Thermofisher, AM9260G) • 6. Tween-20 (Sangon, A100777-0500) • 7. DTT, 1 M (Invitrogen, P2325) • 8. Acetyl coenzyme A (Ac-CoA, CAYMAN, Cat. No. 16160) • 9. Recombinant histone H3.1 biotinylated (human) (Active Motif 31696) • 10. 384-well plate, light gray (Perkin Elmer, Cat. No. 6005350) • 11. Anacardic acid (MCE, Cat. No. HY—N2020) • 12. AlphaScreen streptavidin donor beads, 5 mg (PerkinElmer, 6760002) • 13. AlphaScreen protein A acceptor beads, 5 mg (PerkinElmer, 6760137M) • 14. Acetylated-lysine antibody #9441 (CST 9441S) • 15. PHERA star microplate reader (BMG labtech) • II. Experimental method
a. 1× assay buffer: 100 mM Tris-HCl, pH 7.8; 15 mM NaCl; 1 mM EDTA; 0.01% tween-20; 1 mM DTT; 0.01% m/v ovalbumin.
b. KAT enzyme solution: 1.25 nM (final concentration), prepared in 1× assay buffer.
c. Mixed substrate of Ac-CoA and H3: a mixed substrate of 1000 nM (final concentration) Ac-CoA and 55 nM (final concentration) H3, prepared in 1× assay buffer.
d. Compounds: initial concentration of 100 μM, 3-fold dilution, 10 gradient concentrations. All compound concentrations were diluted 83-fold with 1× assay buffer for later use.
e. Assay reagent: 8 ng/μL (final concentration) AlphaScreen protein A acceptor beads, 8 ng/μL AlphaScreen streptavidin donor beads, 1:1500 diluted acetylated-lysine antibody, and 100 μM anacardic acid; prepared in 1× assay buffer.
(§1) 2. Experimental Procedure
a. The prepared enzyme solution was added to a 384-well plate at 3 μL/well, and 3 μL of 1× assay buffer was added to each well in columns 23 and 24 (Min).
b. 3 μL of compound solution was added to each well, and 3 μL of buffer was added to each Min well; 3 μL of DMSO solution was added to each well in columns 1 and 2 (Max) as controls. The plate was centrifuged, shaken for 2 min, and incubated at room temperature for 15 min.
c. The mixed substrate of Ac-CoA and H3 was added at 6 μL/well, and the plate was centrifuged, shaken for 2 min, and incubated at room temperature for 20 min.
d. The assay reagent was added at 6 μL/well, and the plate was centrifuged, shaken for 2 min, and incubated in the dark at room temperature for 120 min.
(§2) e. Plate reading was performed on the microplate reader, and AlphaScreen counts were recorded.
f. Plotting was performed using the Graphpad software, and the IC50 values of the compounds were calculated.
In general terms: Bead proximity is the source of the signal in Alpha formats.

Assay [2] has as its target human KAT6B (Homo sapiens (Human), UniProt Q8WYB5). Put plainly: KAT6B enzyme activity assay (AlphaScreen method). The assay is classed as biochemical. The conditions noted are these: inhibition of the enzyme human KAT6B.
Description: Test Example 2: KAT6B Enzyme Activity Assay (AlphaScreen Method)
I. Reagents and Instrument
• 1. KAT6B (718-1008) (ActiveMotif, 81224) • 2. Bovine serum albumin (Sangon, A500023-0100) • 3. 2 M Tris-HCl solution, pH 7.8, sterile (Sangon, B548140-0500) • 4. EDTA (0.5 M), pH 8. 0, RNase-free (Thermofisher, AiM9260G) • 5. Tween-20 (Sangon, A100777-0500) • 6. DTT, 1 M (Invitrogen, P2325) • 7. Acetyl coenzyme A (Ac-CoA, CAYMAN, Cat. No. 16160) • 8. Recombinant histone H3.1 biotinylated (human) (Active Motif 31696) • 9. 384-well plate, light gray (Perkin Elmer, Cat. No. 6007290) • 10. Anacardic acid (MCE, Cat. No. HY—N2020) • 11. AlphaScreen streptavidin donor beads, 5 mg (PerkinElmer, 6760002) • 12. AlphaScreen protein A acceptor beads, 5 mg (PerkinElmer, 6760137M) • 13. Acetylated-lysine antibody #9441 (CST 9441S) • 14. DMSO (Tansoole, G7592B) • 15. PHERA star microplate reader (BMG labtech)
a. 1× buffer 2: 50 mM Tris-HCl, pH 7.8; 0.1 mM EDTA; 0.01% v/v tween-20; 1 mM DTT; 0.01% m/v bovine serum albumin.
b. KAT6B enzyme solution: 3 nM (final concentration), prepared in buffer 2.
c. Mixed substrate of Ac-CoA and H3: a mixed substrate of 30 nM (final concentration) Ac-CoA and 30 nM (final concentration) H3, prepared in buffer 2.
d. Compounds: initial concentration of 10 mM, 4-fold dilution, 10 gradient concentrations. All compound concentrations were diluted 2500-fold with buffer 2 for later use.
e. Assay reagent: 8 ng/μL (final concentration) AlphaScreen protein A acceptor beads, 8 ng/μL AlphaScreen streptavidin donor beads, 1:1000 diluted acetylated-lysine antibody, and 100 μM anacardic acid; prepared in buffer 2.
as §1
a. The prepared compound solutions were added to a 384-well plate at 2 μL/well, and 2 μL of buffer 2 (containing 0.04% DMSO) was added to each Min well and each Max well as controls. The plate was centrifuged.
b. The prepared enzyme solution was added at 2 μL/well, and 2 μL of buffer 2 was added to each Min well. The plate was centrifuged, shaken for 2 min, and incubated at room temperature for 10 min.
c. The mixed substrate of Ac-CoA and H3 was added at 4 μL/well, and the plate was centrifuged, shaken for 2 min, and incubated at room temperature for 120 min.
d. The assay reagent was added at 4 μL/well, and the plate was centrifuged, shaken for 2 min, and incubated in the dark at room temperature for 120 min.
as §2
f. Dose-response curves were plotted using log(inhibitor) vs. response of the graphpad prism software, with the abscissa representing the logarithm of the compound concentration and the ordinate representing the calculated enzyme activity inhibition rate, and IC50 values were calculated.

Molecules are shown by their SMILES.

The record followed here is US20250145637A1, “SULFONAMIDE DERIVATIVE, PREPARATION METHOD THEREFOR AND MEDICAL USE THEREOF” (Jiangsu Hengrui Pharmaceuticals Co. Ltd., priority 2021, published 2025).

Chain of human KAT6A (Q92794 whole entry): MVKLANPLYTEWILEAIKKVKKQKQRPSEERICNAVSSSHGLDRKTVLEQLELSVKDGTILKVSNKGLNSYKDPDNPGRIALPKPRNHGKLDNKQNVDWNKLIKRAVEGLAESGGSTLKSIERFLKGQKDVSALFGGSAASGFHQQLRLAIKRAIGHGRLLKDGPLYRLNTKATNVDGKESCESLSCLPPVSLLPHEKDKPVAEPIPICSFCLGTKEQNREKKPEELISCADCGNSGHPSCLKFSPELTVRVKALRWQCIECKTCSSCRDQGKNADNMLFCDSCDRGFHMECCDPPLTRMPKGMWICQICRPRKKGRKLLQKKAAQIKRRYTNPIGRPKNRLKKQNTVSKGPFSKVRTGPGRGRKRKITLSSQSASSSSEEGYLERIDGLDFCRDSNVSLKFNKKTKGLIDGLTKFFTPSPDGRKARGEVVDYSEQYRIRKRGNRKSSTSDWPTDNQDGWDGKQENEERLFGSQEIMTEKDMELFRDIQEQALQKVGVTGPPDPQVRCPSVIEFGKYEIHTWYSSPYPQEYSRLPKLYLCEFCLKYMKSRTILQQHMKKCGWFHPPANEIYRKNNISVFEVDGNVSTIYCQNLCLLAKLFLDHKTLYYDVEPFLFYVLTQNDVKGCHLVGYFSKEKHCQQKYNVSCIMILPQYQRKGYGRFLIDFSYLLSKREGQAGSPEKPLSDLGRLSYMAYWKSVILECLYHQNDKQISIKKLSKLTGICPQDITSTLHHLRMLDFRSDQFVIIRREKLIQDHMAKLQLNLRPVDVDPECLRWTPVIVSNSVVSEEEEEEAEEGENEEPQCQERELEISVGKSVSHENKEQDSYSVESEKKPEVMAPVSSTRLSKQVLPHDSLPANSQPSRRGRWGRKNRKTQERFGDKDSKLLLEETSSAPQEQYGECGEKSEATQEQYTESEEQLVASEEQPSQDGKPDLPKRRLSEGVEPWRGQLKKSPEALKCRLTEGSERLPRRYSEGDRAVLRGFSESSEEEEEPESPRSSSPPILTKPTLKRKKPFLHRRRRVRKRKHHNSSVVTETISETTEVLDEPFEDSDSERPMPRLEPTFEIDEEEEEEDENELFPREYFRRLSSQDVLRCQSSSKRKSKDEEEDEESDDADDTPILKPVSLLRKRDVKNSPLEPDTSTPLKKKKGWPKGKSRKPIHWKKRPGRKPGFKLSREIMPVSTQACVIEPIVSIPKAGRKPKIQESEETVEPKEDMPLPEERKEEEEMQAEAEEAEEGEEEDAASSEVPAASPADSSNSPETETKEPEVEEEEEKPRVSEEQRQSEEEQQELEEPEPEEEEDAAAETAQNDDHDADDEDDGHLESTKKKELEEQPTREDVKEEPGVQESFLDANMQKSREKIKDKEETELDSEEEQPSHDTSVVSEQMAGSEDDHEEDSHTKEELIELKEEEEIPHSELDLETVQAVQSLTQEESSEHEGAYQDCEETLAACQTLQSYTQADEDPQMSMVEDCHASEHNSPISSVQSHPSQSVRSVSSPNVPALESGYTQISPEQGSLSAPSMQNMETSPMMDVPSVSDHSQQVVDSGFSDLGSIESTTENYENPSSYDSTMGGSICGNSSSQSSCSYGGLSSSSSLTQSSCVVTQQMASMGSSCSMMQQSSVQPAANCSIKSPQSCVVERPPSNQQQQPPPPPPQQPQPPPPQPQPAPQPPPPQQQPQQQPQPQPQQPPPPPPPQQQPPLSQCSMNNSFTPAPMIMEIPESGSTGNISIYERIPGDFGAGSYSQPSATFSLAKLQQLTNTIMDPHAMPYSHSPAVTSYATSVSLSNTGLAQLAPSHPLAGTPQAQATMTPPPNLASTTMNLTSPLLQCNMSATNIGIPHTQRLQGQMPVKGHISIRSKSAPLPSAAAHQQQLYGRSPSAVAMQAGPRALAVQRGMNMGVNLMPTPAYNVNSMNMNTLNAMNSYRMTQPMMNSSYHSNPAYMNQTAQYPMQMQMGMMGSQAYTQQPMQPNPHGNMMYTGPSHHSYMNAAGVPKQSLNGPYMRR
Chain of human KAT6B (Q8WYB5 718-1008): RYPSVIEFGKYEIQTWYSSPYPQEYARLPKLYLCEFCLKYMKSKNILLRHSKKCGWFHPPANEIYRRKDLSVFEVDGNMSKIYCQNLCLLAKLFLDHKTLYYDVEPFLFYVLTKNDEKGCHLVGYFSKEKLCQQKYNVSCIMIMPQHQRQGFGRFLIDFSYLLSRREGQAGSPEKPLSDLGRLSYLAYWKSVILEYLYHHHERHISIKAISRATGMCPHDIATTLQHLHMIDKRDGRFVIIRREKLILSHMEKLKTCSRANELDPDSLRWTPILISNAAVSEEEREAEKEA

`COc1ccc(F)cc1S(=O)(=O)Nc1noc2cc(Cn3cccn3)c3c(c12)OCCC3` [Compound 9, N-(5-((1H-pyrazol-1-yl)methyl)-3,4-dihydro-2H-chromeno[8,7-d]isoxazol-9-yl)-5-fluoro-2-methoxybenzenesulfonamide] gave an IC50 in assay [1] of 0.7 nM. On the same count and under the same terms, for `COc1cccc(OC(F)(F)F)c1S(=O)(=O)Nc1noc2cc(Cn3cccn3)c3c(c12)OCCC3` [Compound 10, N-(5-((1H-pyrazol-1-yl)methyl)-3,4-dihydro-2H-chromeno[8,7-d]isoxazol-9-yl)-2-methoxy-6-(trifluoromethoxy)benzenesulfonamide] the value was 0.9 nM.

Molecule `COc1cccc(OC)c1S(=O)(=O)Nc1noc2cc(Cn3cccn3)c3c(c12)OCCC3` [Compound 2, N-(5-((1H-pyrazol-1-yl)methyl)-3,4-dihydro-2H-chromeno[8,7-d]isoxazol-9-yl)-2,6-dimethoxybenzenesulfonamide] displayed an IC50 in assay [2] of 0.7 nM. The molecule `CCOc1cc(C)ccc1S(=O)(=O)Nc1noc2cc(Cn3cccn3)c3c(c12)OCCC3` [Compound 7, N-(5-((1H-pyrazol-1-yl)methyl)-3,4-dihydro-2H-chromeno[8,7-d]isoxazol-9-yl)-2-ethoxy-4-methylbenzenesulfonamide] gave an IC50 in assay [1] of 0.5 nM. With `COc1ccccc1S(=O)(=O)Nc1noc2cc(Cn3cccn3)c3c(c12)OCCC3` [Compound 3, N-(5-((1H-pyrazol-1-yl)methyl)-3,4-dihydro-2H-chromeno[8,7-d]isoxazol-9-yl)-2-methoxybenzenesulfonamide], the IC50 in assay [1] was 0.5 nM; in assay [2], 1.4 nM. As for `COc1cccc(OC)c1S(=O)(=O)Nc1noc2cc(Cn3cccn3)c3c(c12)OCC3` [Compound 1, N-(4-((1H-pyrazol-1-yl)methyl)-2,3-dihydrobenzofuro[7,6-d]isoxazol-8-yl)-2,6-dimethoxybenzenesulfonamide], the values for the IC50 in assay [1] and in assay [2] were 0.6 nM and 1.1 nM, respectively. In assay [1], `COc1ccccc1S(=O)(=O)Nc1noc2cc(Cn3cccn3)c3c(c12)OCC3` [Compound 20, N-(4-((1H-pyrazol-1-yl)methyl)-2,3-dihydrobenzofuro[7,6-d]isoxazol-8-yl)-2-methoxybenzenesulfonamide] registered an IC50 of 2.9 nM. This counts as single-digit nanomolar. In the case of `Cc1ccc(S(=O)(=O)Nc2noc3cc(Cn4cccn4)c4c(c23)OCCC4)c(OCC(F)(F)F)c1` [Compound 8, N-(5-((1H-pyrazol-1-yl)methyl)-3,4-dihydro-2H-chromeno[8,7-d]isoxazol-9-yl)-4-methyl-2-(2,2,2-trifluoroethoxy)benzenesulfonamide], in assay [1], the IC50 stood at 0.7 nM. Consider `COc1cccc(OC)c1S(=O)(=O)Nc1noc2cc(Cn3cccn3)c3c(c12)OC(F)(F)O3` [Compound 5, N-(4-((1H-pyrazol-1-yl)methyl)-2,2-difluoro-[1,3]dioxolo[4′,5′:5,6]benzo[1,2-d]isoxazol-8-yl)-2,6-dimethoxybenzenesulfonamide], for which the IC50 in assay [1] turned out to be 1 nM; in assay [2] it was 1.5 nM.

In turn, `COc1cccc(OC(F)(F)F)c1S(=O)(=O)Nc1noc2cc(Cn3cccn3)c3c(c12)OCC3` [Compound 23, N-(4-((1H-pyrazol-1-yl)methyl)-2,3-dihydrobenzofuro[7,6-d]isoxazol-8-yl)-2-methoxy-6-(trifluoromethoxy)benzenesulfonamide] displayed an IC50 in assay [1] of 4.8 nM.

Broadly, the IC50 is the concentration that gives 50% inhibition. A lower IC50 goes with higher potency.
